Results on 1 molecule are retold here after article PMC4764579, “Structural insights into the mechanism of activation of the TRPV1 channel by a membrane-bound tarantula toxin” (eLife, 2016).

A short description of this series: Membrane partitioning of toxins into lipid vesicles measured using Trp fluorescence. The series is classed as physicochemical. Conditions: LUVs 1:1 POPC:POPG. From the text: Motivated by the amphipathic character evident in the structure of DkTx, together with the placement of the toxin at the protein-lipid interface when bound to TRPV1, we investigated the interaction of DkTx and each of its two lobes with lipid membranes. For these experiments, we took advantage of the presence of a single conserved and solvent accessible Trp residue in loop 2 of both K1 and K2 (Figure 1C,D; W11 and W53), and used Trp fluorescence to monitor the partitioning of the toxin from the aqueous solution into the membrane environment ([Gupta et al., 2015]; [Ladokhin et al., 2000]; [Milescu et al., 2007]). When aqueous solutions of DkTx were excited at a wavelength of 280 nm, emission spectra with maxima at 353 nm were obtained (Figure 5A, left), as expected for Trp residues residing in such an environment. […] To quantify the extent of partitioning as a function of lipid concentration, we measured the relative fluorescence intensity in a blue-shifted region of the spectra (e.g. 320 nm) as a function of lipid concentration, and fit a partition function to the data to obtain a mole-fraction partition coefficient (Kx) of (2.3 ± 0.7) × 10^6, indicating an energetically favorable interaction of DkTx with lipid membranes (Figure 5A, right). This strong interaction of DkTx with membranes would facilitate binding of the toxin to the channel by increasing the local concentration of the toxin near the channel and by a reduction in the dimensionality of diffusion within the membrane ([Axelrod and Wang, 1994]).
Figure 5. Interaction of DkTx and toxin constructs with lipid membranes measured using Trp fluorescence. (A–E, left panel) Trp emission spectra of DkTx (A), K1 without linker (B), K2 (C), bivalent K1 (K1K1) (D) and bivalent K2 (K2K2) (E) in the absence (black) and presence (blue, 1.6 mM for DkTx, 2 mM for K1-ΔL and K1K1, and 3 mM for K2 and K2K2) of lipid vesicles (1:1 mix of POPC:POPG). (A–E, right panel) Relative fluorescence intensity at 320 nm (F/F0) as a function of available lipid concentrations (60% of total lipid concentration). Smooth curves correspond to partition functions with Kx = (2.3 ± 0.7) × 10^6 and F/F0^max = 2.65 ± 0.08 for DkTx, Kx = (3.9 ± 1.1) × 10^5 and F/F0^max = 2.63 ± 0.07 for K1-ΔL, Kx = (2.0 ± 0.3) × 10^4 and F/F0^max = 3.71 ± 0.40 for K2, Kx = (2.9 ± 0.3) × 10^6 and F/F0^max = 2.47 ± 0.03 for K1K1 and Kx = (8.1 ± 2) × 10^5 and F/F0^max = 2.77 ± 0.55 for K2K2. Error bars correspond to SEM (n = 3 or 4). Partition functions for K1-ΔL and K2 are shown as dotted lines for comparison in D and E, respectively. (F) Comparisons of mole-fraction partition coefficient (Kx) of toxins. 7G-DkTx denotes a construct of DkTx whose linker (PYVPVTT) is replaced with 7 Gly residues. Error bars correspond to SEM (n = 3 or 4). DOI: http://dx.doi.org/10.7554/eLife.11273.020 Figure 5—figure supplement 1. Interaction of K1-K2 chimeras with lipid membranes measured using Trp fluorescence. (A–E, left panel) Trp emission spectra of K1(D1N) (A), K1(K2L2) (B), K1(K2L3) (C), K1(K2L4) (D) and K1(K2CT) (E) in the absence (black) and presence (blue, 2 mM) of lipid vesicles (1:1 mix of POPC:POPG). (A–D, right panel) Relative fluorescence intensity at 320 nm (F/F0) as a function of available lipid concentrations (60% of total lipid concentration). Smooth curves correspond to partition functions with Kx = (1.76 ± 0.06) × 10^6 and F/F0^max = 3.79 ± 0.02 for K1(D1N), Kx = (4.77 ± 1.39) × 10^5 and F/F0^max = 1.31 ± 0.02 for K1(K2L2), Kx = (1.02 ± 0.04) × 10^4 and F/F0^max = 3.69 ± 0.02 for K1(K2L3), and Kx = (0.90 ± 0.04) × 10^6 and F/F0^max = 2.59 ± 0.02 for K1(K2L4). Error bar corresponds to SEM (n = 3 or 4). Smooth curve of K1-ΔL was shown as a dotted line for comparison throughout the figures. (F) Comparisons of mole-fraction partition coefficient (Kx) of toxins. Error bars correspond to SEM (n = 3 or 4). DOI: http://dx.doi.org/10.7554/eLife.11273.021 [drawing 10] […]

Positions of bridges follow the written chain, without caps; N, C: chain ends. Residues, ends and D or L forms follow the SMILES beside them.

Take `CC[C@H](C)[C@@H]1NC(=O)[C@H](Cc2ccccc2)NC(=O)[C@H](C)NC(=O)[C@H](CC(C)C)NC(=O)[C@@H]2CCCN2C(=O)[C@@H]2CSSC[C@@H]3NC(=O)[C@H](C(C)C)NC(=O)[C@H](CCC(=O)O)NC(=O)CNC(=O)[C@H](CCC(=O)O)NC(=O)[C@H](CCCCN)NC(=O)[C@H](C)NC(=O)[C@@H](NC(=O)[C@@H](N)CC(N)=O)CSSC[C@H](NC(=O)[C@H](CSSC[C@@H](C(=O)N[C@@H](CCC(=O)O)C(=O)N[C@@H](CCCCN)C(=O)N[C@@H](Cc4ccc(O)cc4)C(=O)N[C@@H](CCCNC(=N)N)C(=O)O)NC(=O)[C@H](Cc4ccc(O)cc4)NC(=O)[C@@H]4CCCN4C1=O)NC(=O)[C@H](CCCCN)NC(=O)[C@H](CO)NC(=O)CNC(=O)[C@H](Cc1c[nH]c4ccccc14)NC(=O)CNC3=O)C(=O)N[C@@H](Cc1c[nH]cn1)C(=O)NCC(=O)N[C@@H](CC(C)C)C(=O)N[C@@H](CC(=O)O)C(=O)N2` [K2] (H-NCAKEGEVCGWGSKCCHGLDCPLAFIPYCEKYR-OH; disulfide 2-16, 9-21, 15-29 (inferred); N-terminus and C-terminus assumed): under “Trp fluorescence, 10 mM HEPES, 1 mM EDTA, pH 7.0, fit of partition function, ± SEM, n = 3 or 4, SEM”, the “F/F0^max (relative fluorescence intensity at 320 nm when partitioning is saturated)” value came to 3.71 ± 0.40. Besides, the “measured free energy of membrane partitioning (ΔG° = −RT lnKx)” value (from measured Kx) was -5.8 kcal/mol.
